Data as given in patent US6743818B2, “Cyclobutaindolecarboxamide compounds” (Les Laboratoires Servier, priority 2000, dated 2004).

Key:
[1] = system: Male mice of the NMRI strain; assay: Marble-burying test in the mouse; type: in vivo; conditions: s.c.; inhibition of spontaneous marble-burying, 30 minutes' free exploration
Source text: This test allows evaluation of the capacity of pharmacological agents to inhibit the spontaneous marble-burying behaviour of mice, the inhibition being predictive of antidepressant and/or anti-impulsive action. Male mice of the NMRI strain (Iffa-Credo, l'Arbresle, France) weighing from 20 to 25 g on the day of the experiment are placed individually in Macrolon boxes (30×18×19 cm) containing 5 cm of sawdust and covered with a perforated plexiglass plate. Twenty four “tiger's eye” glass marbles are evenly distributed on the sawdust at the periphery of the box. At the end of 30 minutes' free exploration, the animals are removed from the box and the number of buried marbles is counted.

male Wistar rats = assay: Vogel conflict test; type: in vivo, rat; conditions: s.c.; for Punished licks (1 shock/20 licks): 3 minutes of test
Method: The test is carried out on male Wistar rats (IFFA-CREDO) weighing from 230 to 250 g, which are kept in groups of 4 on sawdust in cages in an animal house, with free access to food and drink, for 5 days before they are used, under the following conditions: temperature (21±1° C.), humidity (60±5%) and a 12 hour diurnal cycle (07:00 to 19:00 hours).
On the Monday following their arrival, the animals are transferred to the experiment room where they stay until Friday, the day of the test. For 4 days, from Monday to Thursday inclusive, the animals have access to drink for only one hour per day (from 09:00 to 10:00 hours).
On the day before the test, the animals are isolated from 15:00 hours in cages, on grills, without either food or drink.
The test is carried out in a transparent plastics cage located in a soundproofed and ventilated enclosure. The cage has a chrome steel floor. The metal tip of the bottle containing the drink enters the cage at a height of 6 cm above the metal floor. The floor and the tip of the bottle are connected by electric cables to an apparatus which records the licks of the animal and controls the administration of electric shocks. The apparatus is so regulated that the animal receives an electric shock (between tip and metal floor) every 20 licks of the tip.
On the day of the test, the animal is given an injection (s.c.) of physiological serum (control) or of the test product 30 minutes before being placed in the test cage. The session begins as soon as the animal has carried out 20 licks and received a first electric shock (duration 0.5 seconds, intensity 0.300 mA). For a period of 3 minutes, the animal receives an electric shock each time it carries out 20 licks.
The results are the numbers of licks and of shocks received by the animal during the 3 minutes of the test.
The numbers of licks and of shocks received by the treated animals are compared with those of the control animals by variance analysis, followed by a Dunnett's test with p<0.05. An anxiolytic product increases the number of licks and of shocks received by the animal compared with the controls. For information only, the average number of licks not punished in the animals which have been made thirsty is 674.9±44.5 (N=7) over 3 minutes.
The effectiveness of a product is expressed by the minimum effective dose (MED), that is to say, the lowest dose producing a significant difference compared with the controls. That dose is 2.5 mg/kg s.c. for the product of Example 1.

Structure (SMILES): O=C(Nc1cccnc1)N1CCc2cc3c(cc21)CC3 [Example 1, N-(3-Pyridyl)-2,3,5,6-tetrahydro-1H-cyclobuta[f]indole1-carboxamide]
- MED (minimum effective dose) [1]: 2.5 mg/kg
- Punished licks (1 shock/20 licks) (male Wistar rats; dose 0.63 mg/kg, N=8): 197.5 ± 59.5
- Punished licks (1 shock/20 licks) (male Wistar rats; dose 2.5 mg/kg, N=8, *p < 0.05): 560.1 ± 67.0*
- Punished licks (1 shock/20 licks) (male Wistar rats; dose 10.0 mg/kg, N=7, *p < 0.05): 499.3 ± 95.3*
- minimum effective dose (MED) (male Wistar rats; 30 minutes before test, lowest dose producing a significant difference compared with the controls (p<0.05)): 2.5 mg/kg
